Measurements from PMC7016953 (Cells, 2020).

How the values were obtained:
mTRPC4ß-YFP = tested on: T1, mTRPC4ß-YFP; test: Selectivity profiling, fluo-4 [Ca2+]i response, TRPC4; assay type: cell-based, mouse; conditions: 100 µM
T1 construct: expressed in transfected cells
Method: (§1) Human embryonic kidney 293 (HEK293) cells were stably transfected with expression plasmids that encode hTRPC3-YFP, hTRPC6-YFP, hTRPC7-YFP, mTRPC4ß-YFP, rTRPV1-CFP, rTRPV2-YFP, rTRPV3-YFP, mTRPV4-YFP, or hTRPM2 as previously described. Cell lines were cultured in Earle’s minimum essential medium (MEM; Sigma, Munich, Germany), supplemented with 10% fetal calf serum (Gibco Thermo Fisher Scientific, Darmstadt, Germany), 2 mM L-glutamine, and required concentrations of geneticin in a range of 0.4–1 mg/mL. A HEK293mTRPC5-YFP cell line was maintained and induced as described before. […] For electrophysiological and single cell [Ca^2+]i imaging experiments, PC12 cells were plated onto 25 mm poly-L-lysine-coated glass coverslips and measured 24–48 h after seeding. […]
(§2) The primary compound screen and the generation of concentration response curves in HEK293 cells or in PC12 cells were performed by using a custom-made fluorescence plate imager built into a robotic liquid handling station equipped with a 96-tip multichannel head (Freedom Evo 150, Tecan, Männedorf, Switzerland) as described previously. […] Plates were mounted on the imager, and fluorescence signals were recorded with a cooled Zyla 5.5 camera (Andor, Belfast, UK) through a 515 nm long pass filter. […] When inhibitory potencies were evaluated, a second pipetting step with the respective reference agonist was performed. […]

mTRPC5-YFP = tested on: T2, mTRPC5-YFP; test: Selectivity profiling, fluo-4 [Ca2+]i response, TRPC5; assay type: cell-based, mouse; conditions: 100 µM
T2 construct: expressed in transfected cells
Method: as §1, §2

TRPC3 = tested on: T3, TRPC3; test: Microfluorometric single-cell [Ca2+]i analysis, fura-2-loaded HEK cells stably expressing TRPC3; assay type: cell-based, human; conditions: 50 µM
T3 construct: expressed in transfected cells
Method: (§3) The microfluorometric single-cell [Ca^2+]i analysis was performed on an inverted epifluorescence microscope (Carl Zeiss, Jena, Germany) and calibrated as described. Cells were grown on 25 mm coverslips and loaded with 4 µM fura-2/AM (AAT Bioquest, Sunnyvale, CA, U.S.A.) in HBS containing 0.2% BSA for 30 min at 37 °C. After gently rinsing the coverslips with HBS, coverslips were mounted in a bath chamber and superfused with HBS containing 0.035% BSA.
Figure 2 Microfluorometric single-cell analysis of artemisinin-induced increases in [Ca^2+]i in fura-2-loaded HEK cells stably expressing TRPC3 (A), TRPC6 (B), or TRPC7 (C). […] Experiments were performed either in standard bath solution, containing 1 mM Ca^2+ (black lines and bars), or in a nominally Ca^2+-free HBS buffer, supplemented with 200 µM EGTA (grey lines and bars). Time courses of averaged responses (left), and statistical analysis of 6–11 independent imaging experiments with means and S.D. (right) are shown. Significant differences (p < 0.05, Student´s t-test with paired data: #, with unpaired data: *) are marked for the indicated comparisons; n.s.: difference is statistically not significant.

mouse TRPC3 ortholog = tested on: T4, mouse TRPC3 ortholog; test: Single-cell [Ca2+]i analysis, fura-2-loaded HEK293 cells transiently overexpressing mouse TRPC3; assay type: cell-based; conditions: 50 µM, mean and S.D., n = 215 single cells; basal 311 ± 134 nM
T4 construct: expressed in transfected cells; host or cells: HEK293, transient
Method: as §3

C[C@@H]1CC[C@H]2[C@@H](C)C(=O)O[C@@H]3O[C@@]4(C)CC[C@@H]1[C@]32OO4 [artemisinin]
[Ca2+]i response, TRPC4 (mTRPC4ß-YFP): none of the cell lines responded | [Ca2+]i response, TRPC5 (mTRPC5-YFP): none of the cell lines responded | [Ca2+]i signal in TRPC3-expressing cells in Ca2+-free bath (TRPC3; nominally Ca2+-free HBS with 200 µM EGTA): abolished | [Ca2+]i response in TRPC3-overexpressing HEK cells (TRPC3; standard bath 1 mM Ca2+): confirmed the responses | [Ca2+]i reached after stimulation (mouse TRPC3 ortholog): 1140 ± 635 nM
